Columns and labels:
[1] = test system: thrombin generation (relipidated TF in normal pooled plasma); test: Thrombin generation assay (TGA) without antibody pre-incubation; format: biochemical, human; conditions: Ab conc. 10 nM, Table 44
Description: (§1) The TGA assay was performed using the calibrated-automated-thrombogram (CAT) instrument manufactured and distributed by STAGO. The test method design was equivalent to a standard CAT assay measurement, except that the plasma source was NPP in citrate/CTI. […] Relipidated TF was added to a 96-well assay plate, followed by addition of the antibody/NPP mixture. After a 10-min incubation or directly after combining the relipidated TF with antibody/NPP, thrombin generation was initiated by the addition of calcium and the thrombin substrate. The STAGO software was used to report the following parameters: Peak IIa (highest thrombin concentration generated [nM]); Lag Time (time to IIa generation [min]); ETP (endogenous thrombin potential, area under the curve [nM×min]); and ttPeak (time to Peak IIa [min]).
as §1, with “was normal pooled plasma (NPP)” for “was NPP”, “in citrate supplemented with corn trypsin inhibitor (citrate/CTI).” for “in citrate/CTI.”
(§2) TGA assay was performed using the calibrated-automated-thrombogram (CAT) instrument manufactured and distributed by STAGO (Diagnostica Stago SAS, Asnieres sur Seine, France). […] The anti-TF antibodies were titrated at 0, 10, 50 and 100 nM and mixed with NPP in citrate/CTI. Relipidated TF was added to a 96-well assay plate, followed by addition of the antibody/NPP mixture. After a 10-min incubation or directly after combining the relipidated TF with antibody/NPP, thrombin generation was initiated by the addition of calcium and the thrombin substrate. The STAGO software was used to report the following parameters: Peak IIa (highest thrombin concentration generated on the thrombin generation curve [nM]); Lag Time (time from assay start to the moment 10 nM of thrombin is formed [min]); ETP (endogenous thrombin potential, area under the curve [nM×min]); and ttPeak (time from assay start to Peak IIa [min]). […] As used herein, the term “thrombin generation assay” (TGA) refers to the TGA used in this example.

[2] = test system: thrombin generation (relipidated TF in normal pooled plasma); test: Thrombin generation assay (TGA) with 10 min antibody pre-incubation; format: biochemical, human; conditions: Ab conc. 10 nM
Description: as §1
as §1, with “was normal pooled plasma (NPP)” for “was NPP”, “in citrate supplemented with corn trypsin inhibitor (citrate/CTI).” for “in citrate/CTI.”
as §2

TF:FVIIa = target: T1, TF:FVIIa (Homo sapiens, UniProt P13726); test: FXa conversion assay on MDA-MB-231 cells; format: cell-based; conditions: concentrations of 25, 50, and 100 nM; Example 26
T1 construct: host or cells: MDA-MB-231
T1 sequence (P13726 33-295): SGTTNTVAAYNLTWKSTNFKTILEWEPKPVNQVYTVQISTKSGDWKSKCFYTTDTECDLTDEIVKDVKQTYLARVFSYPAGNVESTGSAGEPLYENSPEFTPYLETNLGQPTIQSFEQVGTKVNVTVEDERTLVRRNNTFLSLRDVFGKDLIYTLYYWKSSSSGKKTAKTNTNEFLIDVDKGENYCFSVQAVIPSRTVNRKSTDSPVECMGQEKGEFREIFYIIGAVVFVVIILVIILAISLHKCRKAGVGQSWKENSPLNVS
Description: (§3) To evaluate the ability of TF:FVIIa to convert FX into FXa in the presence of human antibodies against TF, 5×10^4 MDA-MB-231 cells (ATCC, Manassas, VA, USA) were plated into tissue culture-treated black 96-well plates (Greiner Bio-One, Monroe, NC, USA). […] Upon reconstitution of the binary TF:FVIIa complex with a final concentration of 20 nM of FVIIa, cells were incubated for 5 min at 37° C.
as §3, with “Briefly,” for “To evaluate the ability of TF:FVIIa to convert FX into FXa in the presence of human antibodies against TF,”, “USA) and cultured overnight.” for “USA).”

[3] = target: T2, human TF (TF-positive MDA-MB-231 cells) (Homo sapiens, UniProt P13726); test: FVIIa competition assay (FVII-Fc Alexa488) on MDA-MB-231 cells; format: binding; conditions: highest concentration of antibody; Example 26
T2 construct: Human TF-positive cancer cell lines A431 and MDA-MB-231; host or cells: MDA-MB-231
T2 sequence (P13726 33-295): as above
Description: To evaluate competition between FVIJa and the human antibodies against TF, TF-positive MIDA-MB-231 cells (ATCC, Manassas, VA, USA) were first incubated for 1 hr on ice with a titration of the human antibodies against TF. Subsequently, a final concentration of 20 nM of FVII-Fc conjugated to Alexa488 was added to the antibody cell mixture. After another 1 hr incubation on ice, cells were washed, stained with a viability dye, and analyzed by flow cytometry. The Alexa488 fluorescence data from viable cells was summarized using median fluorescence intensity.
Subsequently, FVII-Fc conjugated to Alexa488 was added to the antibody-cell mixture at a final concentration of 20 nM. After another 1 hr incubation on ice, cells were washed, stained with a viability dye, and analyzed by flow cytometry. The Alexa488 fluorescence data from viable cells was summarized using median fluorescence intensity (MFI).

TF-positive A431 cells = test: Cytotoxicity assay of ADCs, A431 cells; format: cell-based, human; conditions: Primary ADC
Description: To evaluate cytotoxicity of ADCs, TF-positive A431 and HPAF-II cells were plated in 384-well plates (Greiner Bio-One, Monroe, NC, USA) at 4×10^3 cells per well in 40 μL of media. Anti-TF antibodies conjugated to MC-vc-PAB-MMAE were serially diluted starting at 5 nM. Plates were incubated for 3 to 4 days, followed by lysis in CellTiter-Glo (CTG) assay reagent (Promega, Madison, WI, USA). CTG luminescence was measured on an Envision plate reader and the mean and standard deviation of 4 replicates were graphed in Prism.
To evaluate ADC cytotoxicity, A431 cells were plated in 384-well plates (Greiner Bio-One). Anti-TF antibodies conjugated to MC-vc-PAB-MMAE were serially diluted as shown. The TF-specific ADCs were added to A431 cells, with either a 72 h incubation or a 4 h incubation followed by removal of excess ADC and culture for another 68 h. A431 cells were lysed in CTG assay reagent after treatment. CTG luminescence was measured and the mean and standard deviation of 4 replicates graphed in Prism.

[4] = target: T2, human TF (TF-positive MDA-MB-231 cells); test: Antibody competition assay with 25A3 on MDA-MB-231 cells; format: binding; conditions: 20 nM 25A3-Alexa488
Description: (§4) Alexa Fluor antibodies were generated using Alexa Fluor 488 5-sulfo-[…] esters (ThermoFisher Scientific) following manufacturer's protocol. Excess Alexa Fluor dye was removed from the antibody dye conjugate preparations by gel filtration (ThermoFisher Scientific).
(§5) After another 1 hr incubation on ice, cells were washed, stained with a viability dye, and analyzed by flow cytometry. The Alexa488 fluorescence data from viable cells was summarized using median fluorescence intensity.

[5] = target: T2, human TF (TF-positive MDA-MB-231 cells); test: Antibody competition assay with 43D7 on MDA-MB-231 cells; format: binding; conditions: 20 nM 43D7-Alexa488
Description: as §4, §5

[6] = target: T2, human TF (TF-positive MDA-MB-231 cells); test: Antibody competition assay with 39A on MDA-MB-231 cells; format: binding; conditions: 20 nM 39A-Alexa488
Description: as §4, §5

Substance: TF-011
- ETP [1]: 1714 nM·min
- ETP [2]: 792 nM·min
- inhibited FX conversion by (TF:FVIIa): 57-59%
- competition with FVII [3]: effectively competed with FVII
- IC50 (TF-positive A431 cells; 4 hr, followed by washout, FIG. 20B): 0.17 nM
- IC50 (TF-positive A431 cells; 4 hr, followed by washout, FIG. 21A): 0.09 nM
- IC50 (TF-positive A431 cells; Continuous treatment, FIG. 20A): 0.05 nM
- % 25A3 binding [4]: did not reduce
- % 43D7 binding [5]: did not reduce
- % 39A binding [6]: reduced

— patent publication US20240166765A1, “INFLAMMATORY DISEASE TREATMENT USING ANTI-TISSUE FACTOR ANTIBODIES” (Iconic Therapeutics LLC, priority 2020, published 2024)
